Laboratory results published in article PMC10914731, “Homo-BacPROTAC-induced degradation of ClpC1 as a strategy against drug-resistant mycobacteria” (Nature Communications, 2024).
In brackets after ≈: the same amount, converted by molar mass. Several values for one entry are separate records, joined by “and”; a condition that tells them apart may be missing. Equal values may be shown once. Read-outs that look alike come from different tables or passages of the source. *1 amine or outer side, *2 acyl side, *3 side chain or, on linkers, in order; H or OH if unused. Where a SMILES comes first, the peptide text is derived from it. [ ]: non-standard residue; d: D form. X3 = C#CCOc1ccc([C@@H](OC)[C@H](N[*:1])C(=O)[*:2])cc1; X2 = C#CCn1cc(C[C@@H](C(=O)[*:2])N(C)[*:1])c2ccccc21; NMeLeu(5-OH,4R) = CN[C@@H](C[C@@H](C)CO)C(=O)O; Phe(βR-OMe) = CO[C@H](c1ccccc1)[C@H](N)C(=O)O; Trp(1-Me) = Cn1cc(C[C@H](N)C(=O)O)c2ccccc21; NMeL = CN[C@@H](CC(C)C)C(=O)O

Columns and labels:
[1] = target: ClpC1 NTD protein (M. tuberculosis) (Mycobacterium tuberculosis, UniProt P9WPC9); test: biochemical; type: binding
in vitro = conditions: human
Outline: (§1)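 Values are bidirectional Caco-2 apparent permeabilities, P(A−B) and P(B−A), given in 10^-6 cm s-1. The efflux ratio divides P(B−A) by P(A−B), and intrinsic permeability averages the two directions.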

Caco-2 monolayers = test: in vitro; conditions: human, Caco-2
Outline: as §1

[2] = type: in vitro ADME, Mice; conditions: for Microsomal Stability Mice: clearance in microsomes
Outline: (§2)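 Clearance, expressed as % liver blood flow (%Qh), derived by the well-stirred model from first-order half-lives. Depletion monitored by HPLC-MS/MS in acetonitrile-stopped samples over time; 37 °C, NADPH 1 mM, microsomes 0.5 mg/ml, compound 1 µmol/l, Tris-HCl pH 7.5 with MgCl2.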

[3] = type: in vitro ADME, Rat; conditions: for Microsomal Stability Rat: clearance in microsomes
Outline: as §2

[4] = Microsomal stability, human; type: in vitro ADME; conditions: for Microsomal Stability Human: clearance in microsomes
Outline: as §2

[5] = Hepatocyte stability, mice; type: in vitro ADME; conditions: mouse, pH 7.4
Outline: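 Parent depletion by HPLC-MS/MS in mouse hepatocyte suspension (50% serum, ~1 million cells/mL) with 1 µM compound over up to 6 h at 37 °C. Half-lives were scaled to % Qh using the well-stirred liver model.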

[6] = type: in vitro ADME, Rat; conditions: rat, pH 7.4
[7] = type: in vitro ADME, Human; conditions: human, pH 7.4
[8] = system: M. tuberculosis H37Rv (ATCC 27294); test: microbe, parasite or virus in culture; type: cell-based
Msm 607 = test: microbe, parasite or virus in culture; type: cell-based
Msm 700084 = test: microbe, parasite or virus in culture; type: cell-based
[9] = target: His6-tagged ClpC1-NTD substrate, M. smegmatis ClpC1P1P2 (UniProt A0R574+P9WPC9); test: biochemical; type: biochemical; conditions: Msm
[10] = target: ClpC1-NTD substrate, M. tuberculosis ClpC1P1P2 (Mycobacterium tuberculosis, UniProt P9WPC9); test: biochemical; type: biochemical; conditions: Mtb
[11] = SPR (Supplementary Table 1), read-out: KD ClpC1-NTD Mean ± SD
[12] = SPR dissociation rate constant, read-out: koff ClpC1-NTD Mean ± SD
[13] = SPR, single independent measurements
[14] = SPR, single independent measurements, read-out: KD ClpC1-NTD
[15] = SPR, single independent measurements, read-out: koff ClpC1-NTD
[16] = Caco-2, Caco-2 permeability P (A-B)
[17] = Mycobacterium tuberculosis, Mtb H37Rv (Supplementary Table 2), read-out: MIC Mtb
[18] = Mycobacterium tuberculosis, single determinations, read-out: Mtb MIC
[19] = Mycolicibacterium smegmatis, 607, read-out: MIC Msm 607
[20] = Mycolicibacterium smegmatis, 607, read-out: Msm 607 MIC, single determinations
[21] = Mycolicibacterium smegmatis, 700084, single determinations, read-out: Msm 700084 MIC
[22] = Mycolicibacterium smegmatis, 700084, read-out: MIC Msm 700084
[23] = mean of the measurements, read-out: 1-Dmax, Mean
[24] = mean of the measurements, read-out: DC50, Mean

SMILES	koff ClpC1-NTD [1, 13]	koff [1, 15] [s⁻¹]	Papp B→A (in vitro; Caco-2, CACO permeability PEBA) [×10⁻⁶ cm/s]	Caco-2 Int. Perm (Caco-2 monolayers)	Microsomal Stability Mouse QH [2] [%]	Microsomal Stability Mice [2] [%Qh]	Microsomal Stability Rat QH [3] [%]	Microsomal Stability Rat [3] [%Qh]	Microsomal Stability Human QH [4] [%]	Microsomal Stability Human [4] [%Qh]	Hepatocyte Mice [5] [%Qh]	Hepatocyte Stability Mouse QH [5] [%]	Hepatocyte Rat [6] [%Qh]	Hepatocyte Stability Rat QH [6] [%]	Hepatocyte Stability Human QH [7] [%]	MIC [8, 17] [µM]	MIC [8, 18] [µM]	MIC (Msm 607; [19]) [µM]	MIC (Msm 607; [20]) [µM]	MIC (Msm 700084; [21]) [µM]	also measured
CO[C@H](c1ccccc1)[C@@H]1NC(=O)[C@H](C)NC(=O)[C@H](C[C@@H](C)CO)N(C)C(=O)[C@H](Cc2cn(Cc3cn(CCCCCn4cc(Cn5cc(C[C@@H]6NC(=O)[C@H](C(C)C)NC(=O)[C@H](CC(C)C)N(C)C(=O)[C@H](C(C)C)NC(=O)[C@H]([C@H](OC)c7ccccc7)NC(=O)[C@H](C)NC(=O)[C@H](C[C@@H](C)CO)N(C)C6=O)c6ccccc65)nn4)nn3)c3ccccc23)NC(=O)[C@H](C(C)C)NC(=O)[C@H](CC(C)C)N(C)C(=O)[C@H](C(C)C)NC1=O [Compound 9]	0.0005 s⁻¹ and 0.0006 s⁻¹	0.0005	< 0.28	0.1	24.7	25	<23.100	< 23	43.3	43	15	15.001	6	6.192	12.386	0.3 ± 0.1 (≈ 0.611 µg/mL)	0.39 (≈ 0.794 µg/mL)	0.8 (≈ 1.63 µg/mL)	0.78 (≈ 1.59 µg/mL)	> 50	Kd [1, 11]: 0.6 ± 0.2 nM; koff [1, 12]: 0.0005 s⁻¹; Kd [1, 14]: 0.453 nM and 0.515 nM and 0.745 nM; Papp A→B (in vitro; Caco-2, CACO permeability PEAB): < 1.2 ×10⁻⁶ cm/s; Papp A→B (in vitro; [16]): < 0.2 ×10⁻⁶ cm/s; Caco-2 permeability P (B-A) (Caco-2 monolayers): 0; Hepatocyte Human [7]: 12 %Qh; MIC ([8]; single determinations, read-out: Mtb MIC): 0.195 µM (≈ 0.397 µg/mL); MIC (Msm 700084; [22]): > 50 µM; 1-Dmax, single measurements ([9]; Measurement 1-6): 54.4% and 51.4%; 1-Dmax (percent substrate remaining at maximal degradation) ([9]; Measurement 1-6, read-out: 1-Dmax, single measurements): 54.7%; DC50 ([9]; Measurement 1-6, read-out: DC50, single measurements): 7800 nM and 9200 nM and 6900 nM; 1-Dmax (percent substrate remaining at maximal degradation) [9, 23]: 54%; DC50 [9, 24]: 8000 nM; 1-Dmax, single measurements ([10]; Measurement 1-4): 29.9% and 20.5%; 1-Dmax (percent substrate remaining at maximal degradation) ([10]; Measurement 1-4, read-out: 1-Dmax, single measurements): 27.5%; DC50 ([10]; Measurement 1-4, read-out: DC50, single measurements): 7200 nM and 8700 nM and 4400 nM; 1-Dmax (percent substrate remaining at maximal degradation) [10, 23]: 26%; DC50 [10, 24]: 6800 nM
C#CCOc1ccc([C@@H](OC)[C@@H]2NC(=O)[C@H](C)NC(=O)[C@H](C[C@@H](C)CO)N(C)C(=O)[C@H](Cc3cn(C)c4ccccc34)NC(=O)[C@H](C(C)C)NC(=O)[C@H](CC(C)C)N(C)C(=O)[C@H](C(C)C)NC2=O)cc1 [SI-38] (cyclo(A[X3]V[NMeL]V[Trp(1-Me)][NMeLeu(5-OH,4R)]))	0.04 s⁻¹	0.06	18	9.1	72.800	73	58.700	59	83.600	84	15	15.001	37	37.130	19.299	1.6 (≈ 1.55 µg/mL)	1.56 (≈ 1.52 µg/mL)	25 (≈ 24.3 µg/mL)	25 (≈ 24.3 µg/mL)	12.5 (≈ 12.1 µg/mL)	Kd [1, 11]: 5.6 ± 0.6 nM; Kd [1, 14]: 6 nM and 5.19 nM; Papp A→B (in vitro; [16]): < 0.2 ×10⁻⁶ cm/s; Papp B→A (in vitro; Caco-2, Caco-2 permeability P (B-A)): 18 ×10⁻⁶ cm/s; Hepatocyte Human [7]: 19 %Qh; MIC (Msm 700084; [22]): 12.5 µM (≈ 12.1 µg/mL)
C#CCn1cc(C[C@H]2C(=O)N(C)[C@@H](C[C@@H](C)CO)C(=O)N[C@@H](C)C(=O)N[C@@H]([C@H](OC)c3ccccc3)C(=O)N[C@@H](C(C)C)C(=O)N(C)[C@@H](CC(C)C)C(=O)N[C@@H](C(C)C)C(=O)N2C)c2ccccc21 [Compound 26] (cyclo(A[Phe(βR-OMe)]V[NMeL]V[X2][NMeLeu(5-OH,4R)]))	4E-2 4E-2 1/s	0.04	49	24.0	>88.400	> 88	>87.900	> 88	>88.400	> 88	67	66.557	68	67.861	43.919	6.3 (≈ 6.02 µg/mL)	6.25 (≈ 5.97 µg/mL)	6.3 (≈ 6.02 µg/mL)	6.25 (≈ 5.97 µg/mL)	12.5 (≈ 11.9 µg/mL)	koff [1, 12]: 0.04 s⁻¹; Kd ([1]; SPR, individual measurements (source data), read-out: KD ClpC1-NTD): 17 nM and 12.3 nM; Kd ([1]; SPR, read-out: ClpC1-NTD KD Mean ± SD): 15 ± 3 nM; efflux ratio (in vitro; Caco-2): 2.2; Papp A→B (in vitro; Caco-2, CACO permeability PEAB): 25 ×10⁻⁶ cm/s; Influence of N-methylation on permeability (Caco-2 monolayers): 9.3; Permeability Correlation P (A-B) (Caco-2 monolayers): 13.6; Permeability Correlation Ratio (Caco-2 monolayers): 9.3; MIC ([8]; Mycobacterium tuberculosis, M. tuberculosis H37Rv strain, read-out: MIC Mtb H37Rv Mean ± SD): 6.3 µM (≈ 6.02 µg/mL); MIC ([8]; Mycobacterium tuberculosis, individual measurements (source data), read-out: Mtb MIC): 6.25 µM (≈ 5.97 µg/mL); MIC (Msm 700084; [22]): 12.5 µM (≈ 11.9 µg/mL)
